Measurements taken from US20080113929A1, “Abasic Oligonucleotide as Carrier Platform for Antigen and Immunostimulatory Agonist and Antagonist” (Coley Pharmaceutical GmbH, priority 2004, published 2008).

Assays:
murine TLR9 = molecular target: T1, murine TLR9 (Mus musculus, UniProt Q9EQU3); test: TLR9 signaling induction, NFκB-luciferase reporter in HEK 293 cells stably transfected with murine TLR9; assay type: cell-based; conditions: 16 h, HEK 293 murine TLR9 NFκB-luciferase
T1 construct: expressed in transfected cells; host or cells: HEK 293 cells, stably transfected, also carrying a six-fold NFκB-luciferase reporter plasmid
T1 sequence (Q9EQU3 26-1032): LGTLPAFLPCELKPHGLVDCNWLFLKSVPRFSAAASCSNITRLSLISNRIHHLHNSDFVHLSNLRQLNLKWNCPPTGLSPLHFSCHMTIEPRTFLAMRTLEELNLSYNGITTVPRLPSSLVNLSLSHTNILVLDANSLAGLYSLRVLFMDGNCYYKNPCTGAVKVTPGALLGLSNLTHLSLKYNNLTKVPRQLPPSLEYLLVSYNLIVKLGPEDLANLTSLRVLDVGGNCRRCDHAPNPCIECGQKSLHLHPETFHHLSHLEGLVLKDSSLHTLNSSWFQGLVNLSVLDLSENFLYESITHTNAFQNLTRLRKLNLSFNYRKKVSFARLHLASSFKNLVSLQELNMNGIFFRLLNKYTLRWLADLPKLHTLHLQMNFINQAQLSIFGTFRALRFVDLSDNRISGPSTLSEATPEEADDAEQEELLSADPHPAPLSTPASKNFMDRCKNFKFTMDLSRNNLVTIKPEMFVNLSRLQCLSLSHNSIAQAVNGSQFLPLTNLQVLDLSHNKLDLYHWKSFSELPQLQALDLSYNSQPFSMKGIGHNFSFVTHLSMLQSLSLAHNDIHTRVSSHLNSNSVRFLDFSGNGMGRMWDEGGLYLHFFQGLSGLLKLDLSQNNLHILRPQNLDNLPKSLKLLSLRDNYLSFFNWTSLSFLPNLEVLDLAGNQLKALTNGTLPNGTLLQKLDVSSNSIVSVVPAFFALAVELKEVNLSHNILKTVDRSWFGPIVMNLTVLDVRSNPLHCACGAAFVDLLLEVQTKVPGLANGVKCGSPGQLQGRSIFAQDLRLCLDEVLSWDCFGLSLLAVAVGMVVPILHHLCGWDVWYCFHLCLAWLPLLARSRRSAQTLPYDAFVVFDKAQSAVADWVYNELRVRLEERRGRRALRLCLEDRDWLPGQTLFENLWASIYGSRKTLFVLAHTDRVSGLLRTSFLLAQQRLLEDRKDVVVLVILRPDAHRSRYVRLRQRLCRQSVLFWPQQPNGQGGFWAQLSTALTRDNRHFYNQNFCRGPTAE
Experimental: FIG. 2 is a graph depicting fold induction of TLR9 signaling in vitro, as measured using 293 cells stably transformed with murine TLR9 and a NF-κB-luciferase reporter construct, following 16 hour incubation with indicated concentrations of hexamer CpG motif GACGTT alone (20321), CpG motif GACGTT in the context of a 20-mer CpG-ODN(ODN 5890; SEQ ID NO:5), or CpG motif GACGTT in the context of flanking abasic sequences in 20-mer 20307 (poly-D) or in 20-mer 20566 (poly-C3 spacer). EC50 values are shown in the graph legend.
Following published methods, HEK 293 cells were stably transfected with a murine TLR9 expression vector and a six-fold NFκB-luciferase reporter plasmid. Cells were plated on 96-well plates at 1.5×10^4 cells/well and allowed to attach overnight. The cells were then treated for sixteen hours with individual test compounds listed below at concentrations ranging between 10^−9 M and 10^−5 M.
Test agents were as follows: ODN 20321 (GACGTT); ODN 5890 (SEQ ID NO:5); 20307 ([…], where each D represents an abasic deoxyribonucleotide unit); and 20566 (JJJJJGACGTTJJJJJJJJJ, where each J represents a C3 spacer derived from propane-1,3-diol).
Each data point was done in duplicate. After 16 h stimulation the supernatant was removed and the cells were treated with lysis buffer and stored at −80° C. until luciferase measurement. Values are given as fold NFκB activation compared with non-stimulated cells.

[1] = test system: RAW 264.7 murine macrophage cell line; test: In vitro uptake of Cy3-labeled oligomers by RAW 264.7 cells (FACS mean fluorescence); assay type: cell-based; conditions: Cy3-labeled 20-mer, 0.5 to 5.0 μM, 1 hr at 37° C.
Experimental: FIG. 1 is a bar graph depicting uptake by RAW 264.7 cells of Cy3-labeled 20-mer abasic oligonucleotides (poly-D or poly-C3) and of 20-mer ODN 5890 (SEQ ID NO:5). No data is shown for poly-C3 at 4.0 or 5.0 μM.
The 20-mer ODN 5890 ([…]; SEQ ID NO:5), a 20-mer poly-abasic (i.e., poly-D) or a 20-mer poly-C3 were synthesized with a fluorescence tag Cy3. The murine macrophage cell line, RAW 264.7 (American Type Culture Collection, Manassas, Va.), was incubated with various concentrations of test oligomer (0.5 to 5.0 μM) for 1 hr at 37° C. The cells were then washed and FACS analyzed for oligomer uptake by monitoring mean fluorescence. […] No data is shown for poly-C3 at concentrations of 4.0 or 5.0 μM.

Sequence | TLR9 signaling compared with hexamer CpG motif alone (20321), in words (murine TLR9) | oligomer uptake (comparison in words) [1]
DDDDDGACGTTDDDDDDDDD [compound 20307] | induced significantly more TLR9 signaling | –
JJJJJGACGTTJJJJJJJJJ [compound 20566] | induced significantly more TLR9 signaling | –
TCCATGACGTTTTTGATGTT (Cy3 fluorescent tag attached, position not given here) [ODN 5890, Cy3-tagged in the uptake test] | induced significantly more TLR9 signaling | up taken to a greater extent than either abasic oligonucleotide
